From patent publication US7605154B2, “Substituted Thiazolo [4,5-d]pyrimidines as protein kinase inhibitors” (Janssen Pharmaceutica N.V., priority 2005, dated 2009)
pIC50: −log10 of the molar value. Values joined by “and” are separate entries in the source; they are usually repeats but may differ in a detail not shown here. Identical values can stand only once.

How the values were obtained:
SK-OV-3 [1] = experiment: Cell Proliferation Inhibition Assay (14C-thymidine incorporation), SK-OV-3; assay type: cell-based; details: Homo sapiens
Procedure: The ability of a test compound to inhibit unregulated cell proliferation may be determined by measuring incorporation of ^14C-labelled thymidine into newly synthesized DNA within cell lines derived from carcinomas originating from several tissues. Accordingly, the anti-proliferative effect of a compound on cells with a variety of phenotypes may be determined.
The carcinoma cells are trypsinized and counted. The cells (3000-8000 count) are added to each well of a 96-well CytoStar tissue culture treated scintillating microplate (Amersham #RPNQ0160) in complete medium (100 μL) and the plate is then incubated in complete medium for 24 hrs at 37° C. in an inert atmosphere containing 5% CO2. Test compound (1 μL) in 100% DMSO is added to the plate test-wells with DMSO only added to control-wells.
The plate contents are then discarded, the plate is washed twice with PBS (200 μL) and then PBS (200 μL) is added to each well. The plate is sealed and the degree of methyl ^14C-thyrnidine incorporation is quantified on a Packard Top Count.

EGFR = target: T1, EGFR (Homo sapiens, UniProt P00533); experiment: EGFR Kinase Assay; assay type: biochemical; details: GST-EGFR, 5 μM ATP
T1 construct: started at nucleotide 2189 (corresponding to amino acid 667) and ended at the termination codon; made in house; host or cells: Sf9 insect cells (baculovirus)
Outline: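 Baculovirus/Sf9-expressed GST-EGFR with biotinylated polyGluTyr substrate, 5 μM ATP plus γ-33P-ATP, in 50 mM Tris pH 8.0, 10 mM MgCl2, 0.1 mM vanadate, 1 mM DTT; 1 h at 30 °C.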

HER-2 = target: T2, HER-2 (Homo sapiens, UniProt P04626); experiment: HER-2 Kinase Assay; assay type: biochemical; details: GST-HER2, 1 μM ATP
T2 construct: the nucleotides encoding amino acids 679 to 1255 of HER-2; HIS6-Thrombin (His6 tag with thrombin site) (N); purchased Proqinase (Freiburg, Germany)
Procedure: The HER-2 kinase used was purified at Proqinase (Freiburg, Germany) from a construct that consisted of a fusion of GST (Glutathione-S-Transferase), HIS6-Thrombin and the nucleotides encoding amino acids 679 to 1255 of HER-2.
A mixture of a 10× kinase reaction buffer (600 mM Hepes at pH 7.5, 30 mM Magnesium Chloride, 0.03 mM Sodium Vanadate and […] PEG 20,000), DTT (1.2 mM final from a 10 mM stock), ATP (1 μM from a 10 mM stock), biotinylated polyGluTyr (1.5 ng/μL final from stock of 1 μg/μL prepared by Upstate Biotechnologies, Lake Placid, N.Y.), Manganese Chloride (3 mM final from a 1 M stock), γ-^33P-ATP (10 μCi/μL stock) and water (70 μL/well) was added to each well of a Streptavidin Flashplate (Cat. # SMP103, NEN, Boston, Mass.).
Test compound stock (1 μL) was added to the appropriate wells. Diluted GSTHER2 kinase (6.7 ng/μL diluted into 50 mM Tris-HCl at pH 8.0 and 0.1% bovine serum albumin) (30 μL) was added (total volume of 200 ng/well) to initiate the reactions.
The reaction plates were incubated at 30° C. for 1 hr. The reaction was terminated by aspirating the reaction mixture from the plate wells and washing the wells three times with a 1×PBS stop buffer (300 μL) and 100 mM EDTA. After the final wash, the same stop buffer (200 μL) was again added to the wells. The plates were then sealed and read on the TopCount scintillation counter. […]

SK-OV-3 [2] = experiment: SK-OV-3 Cell Migration Inhibition; assay type: cell-based; details: several values in a cell are repeat determinations
c-Src kinase = target: T3, c-Src kinase (Homo sapiens, UniProt P12931); experiment: c-Src Kinase Assay; assay type: biochemical; details: test concentration of 1 μM
T3 construct: purchased Upstate Biotechnology, Lake Placid, N.Y
Procedure: A mixure of a 10× kinase buffer (80 mM MOPS at pH 7.0, 2 mM EDTA and 100 mM Magnesium Chloride), ATP (5 μM final from a 10 mM stock), a Cdc2 peptide […] (100 μM final from a 2.5 mM stock), γ-^33P ATP (10 μCi/μL stock) and water (20 μL/well) was added to each well of a Streptavidin Flashplate.
Test compound in 100% DMSO (0.5 μL) was added to the appropriate wells. Diluted c-Src kinase (human) (Upstate Biotechnology, Lake Placid, N.Y.) (diluted in a buffer consisting of 20 mM MOPS at pH 7.0, 1 mM EDTA, β-mercaptoethanol (0.1%), Brij-35 (0.01%), glycerol (5%), and 1 mg/mL bovine serum albumin) (2.5 μL) was added to the wells to initiate the reactions. The reaction plates were incubated at 30° C. for 40 min. The reaction was terminated by the addition of a 3% phosphoric acid solution (5 μL). The reaction product (10 μL) was spotted onto a P30 filtermat and washed for 5 minutes in phosphoric acid (75 mM). The wash sequence was repeated two more times, followed with one final wash in methanol. The plates were then dried, sealed and read on the TopCount scintillation counter after adding 30 μL scintillation fluid.
Percent inhibition was derived according to the procedure described in Example 5. The results for those compounds tested are shown in Table 2 at a test concentration of 1 μM.

Lyn kinase = target: T4, Lyn kinase (Homo sapiens, UniProt P07948); experiment: Lyn Kinase Assay; assay type: biochemical; details: test concentration of 1 μM
T4 construct: purchased Upstate biotechnology, Lake Placid, N.Y
Procedure: A mixture of a 10× kinase buffer (500 mM MOPS at pH 7.5, 1 mM EGTA, 1 mM Sodium Vanadate, 1% β-mercaptoethanol and 100 mM Magnesium Acetate), ATP (5 μM final from a 10 mM stock), polyGluTyr (0.1 mg/mL final from a 1 mg/mL stock), γ-^33P ATP (10 μCi/μL stock) and water (20 μL/well) was added to each well of a Streptavidin Flashplate.
Test compound in 100% DMSO (0.5 μL) was added to the appropriate wells. Diluted Lyn kinase (human) (Upstate biotechnology, Lake Placid, N.Y) (diluted in a buffer consisting of 50 mM Tris at pH 7.5, 0.1 mM EGTA, Sodium Vanadate (0.1 mM), β-mercaptoethanol (0.1%) and 1 mg/mL bovine serum albumin) (2.5 μL) was added to the wells to initiate the reactions.
The reaction plates were incubated at 30° C. for 40 min. The reaction was terminated by the addition of a 3% phosphoric acid solution (5 μL). The reaction product (10 μL) was spotted onto a P30 filtermat and washed for 5 minutes in phosphoric acid (75 mM). The wash sequence was repeated two more times, followed with one final wash in methanol. The plates were then dried, sealed and read on the TopCount scintillation counter after adding 30 μL scintillation fluid.
Percent inhibition was derived according to the procedure described in Example 5. The results for those compounds tested are shown in Table 3 at a test concentration of 1 μM.

[3] = Homo sapiens, SK-OV-3, SK-OV-3 migration

T1 sequence (P00533 667-1210 limits assumed): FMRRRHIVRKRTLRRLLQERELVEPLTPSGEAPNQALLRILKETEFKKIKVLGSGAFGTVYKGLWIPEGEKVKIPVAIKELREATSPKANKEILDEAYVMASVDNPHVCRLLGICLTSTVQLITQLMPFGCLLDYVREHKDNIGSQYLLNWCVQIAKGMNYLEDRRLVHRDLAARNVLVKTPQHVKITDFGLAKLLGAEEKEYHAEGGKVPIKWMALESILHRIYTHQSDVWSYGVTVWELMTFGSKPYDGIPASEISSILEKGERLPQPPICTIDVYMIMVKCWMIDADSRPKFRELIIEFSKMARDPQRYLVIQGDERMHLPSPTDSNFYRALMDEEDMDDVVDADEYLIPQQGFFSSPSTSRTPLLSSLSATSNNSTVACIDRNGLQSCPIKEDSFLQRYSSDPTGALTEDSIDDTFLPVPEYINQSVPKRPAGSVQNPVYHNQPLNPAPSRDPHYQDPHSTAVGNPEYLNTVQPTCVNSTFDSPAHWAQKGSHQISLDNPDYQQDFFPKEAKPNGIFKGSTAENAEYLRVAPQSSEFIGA
T3 sequence (P12931 whole entry): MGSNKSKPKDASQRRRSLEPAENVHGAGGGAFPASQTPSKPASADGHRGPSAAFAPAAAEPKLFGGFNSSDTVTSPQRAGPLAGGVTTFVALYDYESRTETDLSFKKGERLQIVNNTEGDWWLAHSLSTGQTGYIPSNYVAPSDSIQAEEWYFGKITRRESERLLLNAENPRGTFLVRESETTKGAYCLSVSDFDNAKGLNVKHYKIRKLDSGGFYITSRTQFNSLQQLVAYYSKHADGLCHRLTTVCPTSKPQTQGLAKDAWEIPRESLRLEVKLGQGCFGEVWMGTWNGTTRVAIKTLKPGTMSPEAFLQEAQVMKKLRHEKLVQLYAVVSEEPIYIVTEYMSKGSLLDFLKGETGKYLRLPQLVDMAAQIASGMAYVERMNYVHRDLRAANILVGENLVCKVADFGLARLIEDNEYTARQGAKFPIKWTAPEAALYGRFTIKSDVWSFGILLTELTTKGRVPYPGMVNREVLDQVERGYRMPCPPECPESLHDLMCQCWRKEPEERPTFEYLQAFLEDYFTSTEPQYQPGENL
T4 sequence (P07948 whole entry): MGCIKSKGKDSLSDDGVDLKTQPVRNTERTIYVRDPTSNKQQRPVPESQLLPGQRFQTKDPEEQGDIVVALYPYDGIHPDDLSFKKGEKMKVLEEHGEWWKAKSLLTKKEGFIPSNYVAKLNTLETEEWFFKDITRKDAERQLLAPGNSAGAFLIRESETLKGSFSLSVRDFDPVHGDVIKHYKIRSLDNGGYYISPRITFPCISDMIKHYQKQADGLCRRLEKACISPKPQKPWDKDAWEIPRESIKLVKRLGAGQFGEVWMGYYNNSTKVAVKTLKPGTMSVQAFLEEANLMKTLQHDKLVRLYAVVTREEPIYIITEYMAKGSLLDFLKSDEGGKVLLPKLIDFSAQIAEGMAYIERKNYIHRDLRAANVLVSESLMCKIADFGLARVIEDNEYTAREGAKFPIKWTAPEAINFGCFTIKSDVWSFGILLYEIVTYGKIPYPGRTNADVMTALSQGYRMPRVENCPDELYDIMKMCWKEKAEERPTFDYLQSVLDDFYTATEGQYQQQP
T2 sequence (P04626 679-1255): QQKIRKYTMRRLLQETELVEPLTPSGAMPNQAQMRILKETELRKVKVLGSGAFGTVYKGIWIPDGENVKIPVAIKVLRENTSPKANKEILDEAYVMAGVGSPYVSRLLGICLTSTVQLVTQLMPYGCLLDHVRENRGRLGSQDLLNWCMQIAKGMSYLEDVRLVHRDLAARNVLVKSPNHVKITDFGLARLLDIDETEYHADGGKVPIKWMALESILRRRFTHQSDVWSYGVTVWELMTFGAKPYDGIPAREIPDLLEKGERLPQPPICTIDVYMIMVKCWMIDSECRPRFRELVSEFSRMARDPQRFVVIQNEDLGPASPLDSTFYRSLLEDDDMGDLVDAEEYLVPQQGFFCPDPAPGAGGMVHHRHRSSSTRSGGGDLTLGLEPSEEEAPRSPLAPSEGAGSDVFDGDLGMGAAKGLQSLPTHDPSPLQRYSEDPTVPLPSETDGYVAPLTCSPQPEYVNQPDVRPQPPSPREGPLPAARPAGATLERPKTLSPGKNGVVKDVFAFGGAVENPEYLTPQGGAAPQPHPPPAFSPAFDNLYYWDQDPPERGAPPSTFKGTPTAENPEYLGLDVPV

pIC50 (EGFR) | pIC50 (SK-OV-3 [2]; [3]) | Structure (SMILES) | further results
8.38 | – | Fc1ccc(Nc2ncnc3nc(Nc4ccc(CN5CCCC5)cc4)sc23)cc1Cl [Cpd 17, N^7-(3-chloro-4-fluoro-phenyl)-N^2-(4-pyrrolidin-1-ylmethyl-phenyl)-thiazolo[4,5-d]pyrimidine-2,7-diamine] | pIC50 (SK-OV-3 [1]): 6.21
6.50 | – | CN1CCN(Cc2ccc(Nc3nc4ncnc(Nc5ccc(Oc6ccccc6)cc5)c4s3)cc2)CC1 [Cpd 94, N^2-[4-(4-methyl-piperazin-1-ylmethyl)-phenyl]-N^7-(4-phenoxy-phenyl)-thiazolo[4,5-d]pyrimidine-2,7-diamine] | pIC50 (HER-2): 5.73
7.68 | < 5.30 | COCCN(CCOC)S(=O)(=O)c1ccc(Nc2nc3ncnc(Nc4ccc(F)c(Cl)c4)c3s2)cc1 [Cpd 32, 4-[7-(3-chloro-4-fluoro-phenylamino)-thiazolo[4,5-d]pyrimidin-2-ylamino]-N,N-bis-(2-methoxy-ethyl)-benzenesulfonamide] | –
8.14 | – | C#Cc1cccc(Nc2ncnc3nc(Nc4ccc(CNCC(O)CO)cc4)sc23)c1 (stereo not drawn) [Cpd 66, 3-{4-[7-(3-ethynyl-phenylamino)-thiazolo[4,5-d]pyrimidin-2-ylamino]-benzylamino}-propane-1,2-diol] | inhibition at 1 µM (c-Src kinase): 15%; inhibition at 1 µM (Lyn kinase): 25%
7.66 | 6.13 | Fc1ccc(Nc2ncnc3nc(Nc4ccc(CCN5CCOCC5)cc4)sc23)cc1Cl [Cpd 4, N^7-(3-chloro-4-fluoro-phenyl)-N^2-[4-(2-morpholin-4-yl-ethyl)-phenyl]-thiazolo[4,5-d]pyrimidine-2,7-diamine] | pIC50 (SK-OV-3 [2]; SK-OV-3 migration): 6.28
8.19 | 6.68 | COCCN(CCOC)Cc1ccc(Nc2nc3ncnc(Nc4ccc(F)c(Cl)c4)c3s2)cc1 [Cpd 34, N^2-(4-{[bis-(2-methoxy-ethyl)-amino]-methyl}-phenyl)-N^7-(3-chloro-4-fluoro-phenyl)-thiazolo[4,5-d]pyrimidine-2,7-diamine] | –
7.60 | 6.60 | C#Cc1cccc(Nc2ncnc3nc(Nc4ccc(S(=O)(=O)N(CCOC)CCOC)cc4)sc23)c1 [Cpd 33, 4-[7-(3-ethynyl-phenylamino)-thiazolo[4,5-d]pyrimidin-2-ylamino]-N,N-bis-(2-methoxy-ethyl)-benzenesulfonamide] | –
8.05 | – | Fc1ccc(Nc2ncnc3nc(Nc4ccc(CN5CCCCC5)cc4)sc23)cc1Cl [Cpd 2, N^7-(3-chloro-4-fluoro-phenyl)-N^2-(4-piperidin-1-ylmethyl-phenyl)-thiazolo[4,5-d]pyrimidine-2,7-diamine] | pIC50 (SK-OV-3 [1]): 6.31
7.52 | 6.32 | C#Cc1cccc(Nc2ncnc3nc(Nc4ccc(CN5CCOCC5)cc4)sc23)c1 [Cpd 35, N^7-(3-ethynyl-phenyl)-N^2-(4-morpholin-4-ylmethyl-phenyl)-thiazolo[4,5-d]pyrimidine-2,7-diamine] | pIC50 (SK-OV-3 [2]; SK-OV-3 migration): 6.42
7.99 | 6.86 | CN(C)CCCNS(=O)(=O)c1ccc(Nc2nc3ncnc(Nc4ccc(F)c(Cl)c4)c3s2)cc1 [Cpd 31, 4-[7-(3-chloro-4-fluoro-phenylamino)-thiazolo[4,5-d]pyrimidin-2-ylamino]-N-(3-dimethylamino-propyl)-benzenesulfonamide] | pIC50 (SK-OV-3 [2]; SK-OV-3 migration): 6.74 and 6.72
7.89 | – | CN(C)CCc1ccc(Nc2nc3ncnc(Nc4ccc(F)c(Cl)c4)c3s2)cc1 [Cpd 11, N^7-(3-chloro4-fluoro-phenyl)-N^2-[4-(2-dimethylamino-ethyl)-phenyl]-thiazolo[4,5-d]pyrimidine-2,7-diamine] | pIC50 (SK-OV-3 [1]): 6.22
7.46 | – | Clc1cccc(Nc2ncnc3nc(Nc4cccc(CN5CCCCC5)c4)sc23)c1 [Cpd 8, N^7-(3-chloro-phenyl)-N^2-(3-piperidin-1-ylmethyl-phenyl)-thiazolo[4,5-d]pyrimidine-2,7-diamine] | –
7.24 | – | CCOC(=O)N1CCN(Cc2ccc(Nc3nc4ncnc(Nc5ccc(F)c(Cl)c5)c4s3)cc2)CC1 [Cpd 28, 4-{4-[7-(3-chloro-4-fluoro-phenylamino)-thiazolo[4,5-d]pyrimidin-2-ylamino]-benzyl}-piperazine-1-carboxylic acid ethyl ester] | –
7.56 | – | CCOC(=O)C1CCN(Cc2ccc(Nc3nc4ncnc(Nc5ccc(F)c(Cl)c5)c4s3)cc2)CC1 [Cpd 29, 1-{4-[7-(3-chloro-4-fluoro-phenylamino)-thiazolo[4,5-d]pyrimidin-2-ylamino]-benzyl}-piperidine-4-carboxylic acid ethyl ester] | –
– | – | NS(=O)(=O)c1ccc(Nc2nc3ncnc(Nc4ccc(F)c(Cl)c4)c3s2)cc1 [Cpd 73, 4-[7-(3-chloro-4-fluoro-phenylamino)-thiazolo[4,5-d]pyrimidin-2-ylamino]-benzenesulfonamnide] | inhibition at 1 µM (c-Src kinase): 65%
